Legend:
[1] = biological target: SNAP-hSPR (sepiapterin reductase, SPR) (Homo sapiens, UniProt P35270); test: biochemical; assay type: binding; conditions: terbium labelled SNAP-hSPR / SSZ labelled SNAP-EGFP; read-out: hTR-FRET IC50
[2] = test system: BH4 levels in SK-N-BE (2) cells; test: SKN-N-BE (2) cellular assay, BH4 levels by LC-MS; assay type: cell-based; conditions: Homo sapiens, SKNBE2, read-out: SK-N-BE(2) IC50, SK-N-BE (2) cells, BH4 levels by LC-MS

SNAP-hSPR (sepiapterin reductase, SPR), sequence (P35270 whole entry): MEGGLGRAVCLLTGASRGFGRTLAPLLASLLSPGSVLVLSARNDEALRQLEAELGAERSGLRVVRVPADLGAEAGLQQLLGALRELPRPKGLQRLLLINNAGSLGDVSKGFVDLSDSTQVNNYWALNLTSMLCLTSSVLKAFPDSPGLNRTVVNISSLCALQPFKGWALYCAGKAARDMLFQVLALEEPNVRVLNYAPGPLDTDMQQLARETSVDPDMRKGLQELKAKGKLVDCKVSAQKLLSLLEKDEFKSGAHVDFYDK

Compound	IC50 [1] [µM]	IC50 [2] [µM]
O=C(c1cnn(-c2nc3sccc3c(=O)[nH]2)c1)N1CCC(C2CC2)CC1 [Q-0751]	0.003	0.2
O=C(c1cnn(-c2nc3sccc3c(=O)[nH]2)c1)N1CCC(CC(F)(F)F)CC1 [Q-0752]	0.004	0.5
O=C(c1cnn(-c2nc3sccc3c(=O)[nH]2)c1)N1CCC(C(F)(F)F)CC1 [Q-0753]	0.002	0.2
O=C(c1cnn(-c2nc3sccc3c(=O)[nH]2)c1)N1CCC(c2c[nH]c3ccccc23)CC1 [Q-0754]	0.009	0.1
O=C(c1cnn(-c2nc3sccc3c(=O)[nH]2)c1)N1CCN2CCC[C@@H]2C1 [Q-0755]	0.004	0.5
Cc1c(C(=O)N2CCN(C)CC2)cnn1-c1nn2cccc2c(=O)[nH]1 [Q-0756]	0.004	0.8
CC1CCN(C(=O)c2cnn(-c3nn4cccc4c(=O)[nH]3)c2C2CC2)CC1 [Q-0757]	0.002	0.2
O=C(c1cnn(-c2nn3c(F)ccc3c(=O)[nH]2)c1)N1CCC(CC(F)(F)F)CC1 [Q-0758]	0.002	0.09
Cc1c(C(=O)N2CCN(C)c3ccccc32)cnn1-c1nn2cccc2c(=O)[nH]1 [Q-0759]	0.001	0.2
Cc1c(C(=O)N2CC3(CCN(C(=O)OC(C)(C)C)C3)C2)cnn1-c1nn2cccc2c(=O)[nH]1 [Q-0762]	0.002	0.2
Cc1c(C(=O)N2CCC(C(F)(F)F)CC2)cnn1-c1nc2c(c(=O)[nH]1)CC2 [Q-0765]	0.005	0.3
Cc1c(C(=O)N2CC(c3ccc(F)c(F)c3)C2)cnn1-c1nn2cccc2c(=O)[nH]1 [Q-0771]	0.001	0.2
Cc1c(C(=O)N2C[C@@H]3CN(C(=O)OC(C)(C)C)[C@@H]3C2)cnn1-c1nn2cccc2c(=O)[nH]1 [Q-0773]	0.006	1.7
O=C(O)c1cn(-c2nn3cccc3c(=O)[nH]2)nn1 [Q-0774]	0.2	10
CCC1(C#N)CCN(C(=O)c2cn(-c3nn4cccc4c(=O)[nH]3)nn2)CC1 [Q-0775]	0.002	1
Cc1c(C(=O)O)nnn1-c1nn2cccc2c(=O)[nH]1 [Q-0779]	0.02	10
CCOC(=O)c1nnn(-c2nn3cccc3c(=O)[nH]2)c1C [Q-0780]	0.001	0.2
O=C(c1cn(-c2nn3cccc3c(=O)[nH]2)nn1)N1CCC(C(F)(F)F)CC1 [Q-0781]	0.001	0.2
O=C(c1cnn(-c2nn3cccc3c(=O)[nH]2)c1)N1CCC(OCC(F)(F)F)CC1 [Q-0783]	0.002	0.3
Cc1c(C(=O)N2CC3(CCCN3C(=O)OC(C)(C)C)C2)cnn1-c1nn2cccc2c(=O)[nH]1 [Q-0785]	0.001	0.2
Cc1c(C(=O)N2CC[C@@H]3CN(C(=O)OC(C)(C)C)[C@@H]3C2)cnn1-c1nn2cccc2c(=O)[nH]1 [Q-0788]	0.01	3.6
Cc1c(C(=O)N2C[C@@H]3CCN(C(=O)OC(C)(C)C)C[C@@H]32)cnn1-c1nn2cccc2c(=O)[nH]1 [Q-0790]	0.007	1.4
Cc1c(C(=O)N2CC3CC2C3)cnn1-c1nn2cccc2c(=O)[nH]1 [Q-0791]	0.002	0.6
Cc1c(C(=O)N2CCC3(CC2)COC3)cnn1-c1nn2cccc2c(=O)[nH]1 [Q-0793]	0.003	1
Cc1c(C(=O)N2CCC3(CC2)OCCO3)cnn1-c1nn2cccc2c(=O)[nH]1 [Q-0795]	0.002	0.5

Compound	IC50 [1] [µM]	IC50 [2] [µM]
Cc1c(C(=O)N2CC3CC(F)(F)CC3C2)cnn1-c1nn2cccc2c(=O)[nH]1 (stereo not shown) [Q-0796]	0.001	0.2
Cc1c(C(=O)N2CCN(C(=O)OC(C)(C)C)CC23CCC3)cnn1-c1nn2cccc2c(=O)[nH]1 [Q-0798]	0.002	0.3
Cc1c(C(=O)N2CC3CC(C2)C3(F)F)cnn1-c1nn2cccc2c(=O)[nH]1 [Q-0799]	0.001	0.3
Cc1c(C(=O)N2CCN(c3ccccc3)CC2)cnn1-c1nn2cccc2c(=O)[nH]1 [Q-0802]	0.001	0.067
Cc1c(C(=O)N2CCC(O)(C(F)(F)F)CC2)cnn1-c1nn2cccc2c(=O)[nH]1 [Q-0803]	0.001	0.2
Cc1c(C(=O)N2CC3(C2)CC(O)(C(F)(F)F)C3)cnn1-c1nn2cccc2c(=O)[nH]1 [Q-0805]	0.004	2.3
Cc1c(C(=O)N2CC3[C@@H](C2)CN3C(=O)OC(C)(C)C)cnn1-c1nn2cccc2c(=O)[nH]1 (stereo partly shown) [Q-0806]	0.003	1.2
Cc1c(C(=O)N2CC3C(C2)C3(F)F)cnn1-c1nn2cccc2c(=O)[nH]1 (stereo not shown) [Q-0807]	0.002	0.4
Cc1c(C(=O)N2CCC3(CCCC3)C2)cnn1-c1nn2cccc2c(=O)[nH]1 [Q-0808]	0.001	0.2
Cc1c(C(=O)N2CC3CN(C(=O)OC(C)(C)C)CC3C2)cnn1-c1nn2cccc2c(=O)[nH]1 (stereo not shown) [Q-0809]	0.006	0.9
Cc1c(C(=O)N2CC(O)(C3CC3)C2)cnn1-c1nn2cccc2c(=O)[nH]1 [Q-0814]	0.002	0.4
Cc1c(C(=O)N2CC(N3CCC(F)(F)CC3)C2)cnn1-c1nn2cccc2c(=O)[nH]1 [Q-0818]	0.002	0.9
Cc1c(C(=O)N2CCCC3(CC3)C2)cnn1-c1nn2cccc2c(=O)[nH]1 [Q-0819]	0.001	0.2
Cc1c(C(=O)N2CCN(C(=O)OC(C)(C)C)C3(CCC3)C2)cnn1-c1nn2cccc2c(=O)[nH]1 [Q-0820]	0.001	0.04
Cc1c(C(=O)N2CCN(c3ccc(F)cc3)CC2)cnn1-c1nn2cccc2c(=O)[nH]1 [Q-0823]	0.001	0.066
Cc1c(C(=O)N2CC3CC(=O)CC3C2)cnn1-c1nn2cccc2c(=O)[nH]1 (stereo not shown) [Q-0824]	0.005	1.8
CCC(C#N)C1CCN(C(=O)c2cnn(-c3nn4cccc4c(=O)[nH]3)c2C)CC1 (stereo not shown) [Q-0826]	0.001	0.1
Cc1c(C(=O)N2CCN(c3ccc(Cl)cc3)CC2)cnn1-c1nn2cccc2c(=O)[nH]1 [Q-0827]	0.002	0.065
Cc1c(C(=O)N2CCN(c3ccc(Cl)c(Cl)c3)CC2)cnn1-c1nn2cccc2c(=O)[nH]1 [Q-0828]	0.004	0.05
Cc1c(C(=O)N2CCN(c3ccc(C#N)cc3)CC2)cnn1-c1nn2cccc2c(=O)[nH]1 [Q-0829]	0.001	0.08
Cc1c(C(=O)N2CCN(c3cccc(Cl)c3)CC2)cnn1-c1nn2cccc2c(=O)[nH]1 [Q-0830]	0.001	0.041
Cc1c(C(=O)N2CCN(c3cnccn3)CC2)cnn1-c1nn2cccc2c(=O)[nH]1 [Q-0831]	0.002	0.4
Cc1c(C(=O)N2CCC(C(F)(F)F)CC2)nnn1-c1nn2cccc2c(=O)[nH]1 [Q-0832]	0.001	0.2
Cc1c(C(=O)N2CCN(c3ccc(C(F)(F)F)cc3)CC2)cnn1-c1nn2cccc2c(=O)[nH]1 [Q-0833]	0.006	0.2
CCOC(=O)c1cn(-c2nn3cccc3c(=O)[nH]2)nn1 [Q-0839]	0.008	1.5
